As usually defined, the LC50 is the concentration that kills 50% of the test population. As a reminder, the NOAEL is the highest dose or exposure tested at which no adverse effect was seen.

This note sets out measurements from EPA's ToxValDB 9.5 (doi:10.2903/j.efsa.2016.4503).

One data set concerns Aphidius rhopalosiphi. In words: LR50; higher = less toxic. The settings on record: not reported; mortality.
A further data set concerns Hypoaspis aculeifer. The settings on record: chronic/long-term; reproduction.
Another data set deals with Anas platyrhynchos. To be noted: acute; oral; unspecified; mortality.
A further data set relates to Tagia sp. The settings on record: chronic/long-term; reproduction.
The subject of another data set is Apis mellifera. The settings on record: acute, mortality.
The next data set deals with Oncorhynchus mykiss. The settings on record: acute; duration: 96 hours; mortality.
Another data set has as its system Bibionidae. The settings on record: chronic/long-term; duration: 23 days; reproduction.
A further data set has as its system Pimephales promelas. To be noted: chronic/long-term; duration: 28 days.
In another data set the test system is Colinus virginianus. The settings on record: acute; oral; mortality.
The next data set concerns Coturnix japonica. The settings on record: chronic.

Where only a bound is given, the exact number is not on record here.

Consider `Cc1ccc(-c2c(Cl)nc(C#N)n2S(=O)(=O)N(C)C)cc1`, for which the LR50 with Aphidius rhopalosiphi is > 209 g/ha. The NOEC was 18.7 mg/kg in the data set with Hypoaspis aculeifer, 2 mg/kg in the data set on Tagia sp., 0.0117 mg/L with Bibionidae and 0.09 mg/L with Pimephales promelas. Moreover, the LD50 in the data set with Anas platyrhynchos was > 2000 mg/kg-day; with Apis mellifera (dermal), 9.52 µg/piece; in the data set with Apis mellifera (oral, unspecified) it was > 31.8 µg/piece; in the data set with Colinus virginianus, > 2000 mg/kg-day; in the data set on Rattus norvegicus (acute, oral, mortality) it was > 5000 mg/kg. In addition, the LC50 with Oncorhynchus mykiss is > 0.107 mg/L. Further, the NOAEL in the data set with Coturnix japonica was 151 mg/kg-day; with Rattus norvegicus (chronic, duration: 2 years, organ weight) it was 17 mg/kg-day; with Rattus norvegicus (reproduction developmental, body weight), 89 mg/kg-day; in the data set on Rattus norvegicus (subchronic, duration: 90 days, oral, organ weight), 29.5 mg/kg-day.
